In article PMC12006171, “Marsupial cathelicidins: characterization, antimicrobial activity and evolution in this unique mammalian lineage” (Frontiers in Immunology, 2025):
≈ marks a conversion by molar mass, not a printed value. Where two headings read alike, the source gives them in different places. Where a SMILES comes first, the peptide text is derived from it.

Tests used:
[1] = system: Escherichia coli ATCC 25922; test: microbe, parasite or virus in culture; type: cell-based
Method in brief: (§1)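 CLSI broth microdilution, MHB ± cations ± 10% lysed horse blood; peptide 64-0.125μg/mL final, duplicates; 5 x 10^5 CFU/mL; 35°C, 20–24 h; MIC = no visible growth.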

[2] = system: Escherichia coli clinical isolate - animal; test: microbe, parasite or virus in culture; type: cell-based
Method in brief: as §1

[3] = system: Pseudomonas aeruginosa ATCC 27853; test: microbe, parasite or virus in culture; type: cell-based
Method in brief: as §1

[4] = system: Pseudomonas aeruginosa clinical isolate - animal; test: microbe, parasite or virus in culture; type: cell-based
Method in brief: as §1

[5] = system: Staphylococcus aureus ATCC 29213; test: microbe, parasite or virus in culture; type: cell-based; settings: ATCC 29213; read-out: MIC S. aureus ATCC
Method in brief: as §1

[6] = system: Staphylococcus aureus clinical isolate - animal; test: microbe, parasite or virus in culture; type: cell-based; settings: clinical isolate - animal; read-out: MIC S. aureus
Method in brief: as §1

[7] = system: Streptococcus agalactiae ATCC 12386; test: microbe, parasite or virus in culture; type: cell-based; settings: ATCC 12386; read-out: MIC S. agalactiae ATCC
Method in brief: (§2)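 Broth microdilution per CLSI M07-A/M26A; cathelicidin peptides tested at final 64-0.125μg/mL, inoculum 5 x 10^5 CFU/mL, 35°C for 20–24 hours. Bacteria in MHB (±10% lysed horse blood, ±Ca/Mg), yeasts in RPMI-1640 MOPS. MIC = lowest concentration preventing visible growth.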

[8] = system: Streptococcus agalactiae Clinical isolate - animal; test: microbe, parasite or virus in culture; type: cell-based; settings: clinical isolate - animal; read-out: MIC S. agalactiae
Method in brief: as §2

[9] = system: Streptococcus pneumoniae ATCC 49619; test: microbe, parasite or virus in culture; type: cell-based; settings: ATCC 49619; read-out: MIC S. pneumoniae ATCC
Method in brief: as §2

E. coli ATCC 25922 = test: Killing kinetics (time kill assay); type: cell-based, Escherichia coli; settings: MHB, 35°C, sampled 1-24 hours, n = 2
Description: The killing kinetics assay was conducted using mid-logarithmic phase cultures of E. coli ATCC 25922 and S. aureus ATCC 29213 in MHB. Cultures were adjusted to a 0.5 McFarland standard, diluted in MHB, and then 100µL was added to each culture tube containing 10mL pre-warmed MHB to give a final inoculum concentration of 5 x 10^5 CFU/mL. A sterility control of 100uL MHB, growth control (no cathelicidin), and vehicle control (DMSO) were also included. Furthermore, 10uL was immediately removed from the growth control tube, diluted 1/1000 in saline and 100µL plated onto MHA in duplicate to confirm inoculum density. To establish colony counts from 0 hours of cathelicidin treatment, 200µL was removed from each culture tube and serially diluted ten-fold in saline from 10^0 to […] in a total volume of 200µL. Then, 10µL of each dilution was spotted onto MHA in duplicate, which were incubated at 35°C for 24 hours.
All culture tubes were then incubated at 35°C static. At 1, 2, 4, 6, 8, 10, 12, and 24 hours post-cathelicidin treatment, 200µL was removed from each culture tube for dilution and plated on MHA as described above. […] Counts of duplicates were averaged, and the log10 CFU/mL graphed against time. This was used as input for one-way ANOVA (p < 0.05) followed by Dunnett’s post hoc test.

[10] = system: Candida albicans Clinical isolate - human; test: microbe, parasite or virus in culture; type: cell-based; settings: Clinical isolate - human; read-out: MIC C. albicans
Method in brief: as §2

Candida krusei ATCC 6258 = test: microbe, parasite or virus in culture; type: cell-based; settings: ATCC 6258; read-out: MIC C. krusei ATCC
Method in brief: as §2

[11] = system: Candida parapsilosis ATCC 22019; test: microbe, parasite or virus in culture; type: cell-based; settings: ATCC 22019
Method in brief: as §2

[12] = system: six bacteria (S. aureus, E. coli, P. aeruginosa; ATCC and clinical isolate); type: cell-based
Method in brief: as §1

[13] = system: six bacteria (S. aureus, E. coli, P. aeruginosa; ATCC and clinical isolate); set-up: method as in 4 sources, ref Peel et al 2016 ||| ref Peel et al 2021 ||| ref Wang et al 2011 ||| ref Peel et al 2017; settings: mature peptide; Y/N summary from earlier study; ref Peel et al 2016; cited from earlier work
[14] = system: three fungi (Candida krusei, Candida parapsilosis, Candida albicans); set-up: method as in 4 sources, ref Peel et al 2016 ||| ref Peel et al 2021 ||| ref Wang et al 2011 ||| ref Peel et al 2017; settings: mature peptide; Y/N summary from earlier study; ref Peel et al 2016; cited from earlier work
[15] = system: Tasmanian devil facial tumor disease; settings: cited from earlier work
From the text: Many marsupial and monotreme cathelicidins were closely related to the classic cathelicidins found in eutherians. These cathelicidins sit within clade II in the phylogenetic tree, sister to eutherians but were not orthologous ( Figure 3 ). Classic marsupial cathelicidins were encoded in cluster A in the genome of all marsupials and monotremes studied, syntenic to the single cathelicidin gene/cluster in eutherians ( Figure 2 ). Many of these were antimicrobial and bactericidal, with MICs equal to or less than eutherian peptides such as cow BMAP-27 and -28 ([87]) and human LL-37, including again ...

[16] = clinical isolate - animal, read-out: MIC P. aeruginosa
[17] = MHB without cations, 5 x 10^5 CFU/mL, 35°C 20–24 hours, duplicate
[18] = superscript value, cation-adjusted Mueller Hinton broth
[19] = value in brackets, 99.9% reduction in CFU/mL
[20] = clinical isolate, MHB without cations, 5 x 10^5 CFU/mL, 35°C 20–24 hours, duplicate
[21] = clinical isolate, superscript value, cation-adjusted Mueller Hinton broth
[22] = clinical isolate, value in brackets, 99.9% reduction in CFU/mL

CC[C@H](C)[C@H](NC(=O)[C@H](CC(=O)O)NC(=O)[C@H](CC(=O)O)NC(=O)CNC(=O)[C@H](CC(C)C)NC(=O)[C@H](CCCCN)NC(=O)[C@@H](NC(=O)[C@H](C)NC(=O)[C@H](CCCCN)NC(=O)[C@H](CCCNC(=N)N)NC(=O)[C@H](CCCCN)NC(=O)[C@H](CC(C)C)NC(=O)[C@H](CO)NC(=O)[C@H](CCC(=O)O)NC(=O)[C@H](Cc1c[nH]c2ccccc12)NC(=O)[C@H](CC(C)C)NC(=O)CNC(=O)[C@H](CCCNC(=N)N)NC(=O)[C@@H](N)CCCCN)[C@@H](C)O)C(=O)N[C@@H](CCCNC(=N)N)C(=O)N[C@@H](CC(N)=O)C(=O)N[C@H](C(=O)N[C@@H](CC(C)C)C(=O)N[C@@H](CCCNC(=N)N)C(=O)N[C@@H](CC(N)=O)C(=O)N[C@@H](Cc1ccccc1)C(=O)N[C@@H](CCCCN)C(=O)N[C@H](C(=O)N[C@@H](CCCCN)C(=O)N[C@H](C(=O)N1CCC[C@H]1C(=O)N[C@H](C(=O)N1CCC[C@H]1C(=O)N[C@@H](CCCNC(=N)N)C(=O)N[C@@H](CCC(N)=O)C(=O)N[C@@H](Cc1c[nH]c2ccccc12)C(=O)N1CCC[C@H]1C(=O)N[C@H](C(=O)N[C@@H](CCCNC(=N)N)C(=O)N[C@H](C(=O)O)C(C)C)[C@@H](C)CC)C(C)C)C(C)C)[C@@H](C)CC)[C@@H](C)O [MaruCath4] (H-KRGLWESLKRKATKLGDDIRNTLRNFKIKVPVPRQWPIRV-OH; N-terminus and C-terminus assumed)
MIC E. coli ATCC ([1]; ATCC 25922): 1.6 (1.6)^1.6 µM
MIC in the presence of cations E. coli ATCC ([1]; ATCC 25922): 1.6 (1.6)^1.6 µM
MBC E. coli ([2]; clinical isolate - animal): 6.6 (6.6)^6.6 µM
MIC E. coli ([2]; clinical isolate - animal): 6.6 (6.6)^6.6 µM
MIC in the presence of cations E. coli ([2]; clinical isolate - animal): 6.6 (6.6)^6.6 µM
MIC ([3]; ATCC 27853, read-out: MIC P. aeruginosa ATCC): >13.2 µM
MIC [4, 16]: >13.2 µM
MIC [5]: >13.2 µM
MIC [6]: >13.2 µM
MIC [7]: >13.2 µM
MIC [8]: >13.2 µM
MIC [9]: >13.2 µM
Number of hours to cause a significant reduction in log CFU/mL of E. coli ATCC (p < 0.05) (E. coli ATCC 25922; 2x MIC): 4 hours
Number of hours to cause a significant reduction in log CFU/mL of E. coli ATCC (p < 0.05) (E. coli ATCC 25922; MIC): 4 hours

CC[C@H](C)[C@H](NC(=O)[C@H](CCCCN)NC(=O)[C@@H](NC(=O)[C@H](CC(N)=O)NC(=O)[C@H](CCCCN)NC(=O)[C@H](CC(C)C)NC(=O)[C@H](CCCNC(=N)N)NC(=O)[C@H](CCCCN)NC(=O)[C@H](CCCCN)NC(=O)[C@@H](NC(=O)[C@H](CO)NC(=O)[C@H](CCCCN)NC(=O)CNC(=O)[C@H](CC(C)C)NC(=O)[C@H](CCCCN)NC(=O)[C@H](CCCCN)NC(=O)[C@H](CC(C)C)NC(=O)[C@H](CCCCN)NC(=O)[C@H](CCCCN)NC(=O)[C@H](CCCNC(=N)N)NC(=O)[C@H](CC(C)C)NC(=O)CNC(=O)[C@H](CCCNC(=N)N)NC(=O)[C@@H](N)CO)[C@@H](C)CC)[C@@H](C)CC)C(=O)NCC(=O)N[C@@H](Cc1ccc(O)cc1)C(=O)N[C@@H](CO)C(=O)N[C@H](C(=O)N1CCC[C@H]1C(=O)N[C@@H](Cc1ccccc1)C(=O)N1CCC[C@H]1C(=O)NCC(=O)O)[C@@H](C)CC [PspeCath1] (H-SRGLRKKLKKLGKSIKKRLKNIKIGYSIPFPG-OH; N-terminus and C-terminus assumed)
MBC E. coli ATCC ([1]; ATCC 25922): 2.1 µM
MIC ([1]; ATCC 25922, read-out: MIC E. coli ATCC): 1 µM (≈ 3.65 µg/mL)
MIC ([1]; ATCC 25922, read-out: MIC in the presence of cations E. coli ATCC): 1 µM
MIC E. coli ATCC [1, 17]: 4 µg/mL (≈ 1.09 µM)
MIC in the presence of cations E. coli ATCC [1, 18]: 4 µg/mL
MBC E. coli ATCC [1, 19]: 8 µg/mL
MBC E. coli ([2]; clinical isolate - animal): 1 µM
MIC ([2]; clinical isolate - animal): 1 µM (≈ 3.65 µg/mL)
MIC in the presence of cations E. coli ([2]; clinical isolate - animal): 0.5 µM
MIC E. coli [2, 20]: 4 µg/mL (≈ 1.09 µM)
MIC in the presence of cations E. coli [2, 21]: 2 µg/mL
MBC E. coli [2, 22]: 4 µg/mL
MBC P. aeruginosa ATCC ([3]; ATCC 27853): 2.1 (2.1)^2.1 µM
MIC P. aeruginosa ATCC ([3]; ATCC 27853): 2.1 (2.1)^2.1 µM
MIC in the presence of cations P. aeruginosa ATCC ([3]; ATCC 27853): 2.1 (2.1)^2.1 µM
MIC P. aeruginosa ATCC [3, 17]: 8 (8)^8 µg/mL
MIC in the presence of cations P. aeruginosa ATCC [3, 18]: 8 (8)^8 µg/mL
MBC P. aeruginosa ATCC [3, 19]: 8 (8)^8 µg/mL
MBC P. aeruginosa ([4]; clinical isolate - animal): 4.3 µM
MIC [4, 16]: 2.1 µM (≈ 7.67 µg/mL)
MIC ([4]; clinical isolate - animal, read-out: MIC in the presence of cations P. aeruginosa): 2.1 µM
MIC P. aeruginosa [4, 20]: 8 µg/mL (≈ 2.19 µM)
MIC in the presence of cations P. aeruginosa [4, 21]: 8 µg/mL
MBC P. aeruginosa [4, 22]: 16 µg/mL
MIC [5]: >17.5 µM
MIC [6]: >17.5 µM
MIC [10]: >17.5 µM
MIC (Candida krusei ATCC 6258): >17.5 µM
MFC C. parapsilosis ATCC [11]: > 17.5 µM
MIC ([11]; read-out: MIC C. parapsilosis ATCC): 8.75 µM (≈ 32 µg/mL)
MIC [7]: >17.5 µM
MIC [8]: >17.5 µM
MIC [9]: >17.5 µM
Number of hours to cause a significant reduction in log CFU/mL of E. coli ATCC (p < 0.05) (E. coli ATCC 25922; 0.5x MIC): 2 hours
Number of hours to cause a significant reduction in log CFU/mL of E. coli ATCC (p < 0.05) (E. coli ATCC 25922; 2x MIC): 1 hours
Number of hours to cause a significant reduction in log CFU/mL of E. coli ATCC (p < 0.05) (E. coli ATCC 25922; MIC): 2 hours
MIC against at least one strain [12]: 4 µg/mL (≈ 1.09 µM)

KIKRIGLGGFIGRILDRIRRLG [SahaCath5, Tasmanian devil cathelicidin, reference compound]
Antibacterial (MIC <64ug/mL) [13]: Y (Peel et al 2016) (Antibacterial (MIC <64ug/mL))
Antifungal (MIC <64ug/mL) [14]: Y (Peel et al 2016) (Antifungal (MIC <64ug/mL))
Toxicity to Tasmanian devil facial tumor disease [15]: toxic to Tasmanian devil facial tumor disease

KRIRFFERIRDRLRDLGNRIKNRIRDFFS [SahaCath6, Tasmanian devil cathelicidin, reference compound]
Antibacterial (MIC <64ug/mL) [13]: Y (Peel et al 2016) (Antibacterial (MIC <64ug/mL))
Antifungal (MIC <64ug/mL) [14]: Y (Peel et al 2016) (Antifungal (MIC <64ug/mL))
Toxicity to Tasmanian devil facial tumor disease [15]: toxic to Tasmanian devil facial tumor disease
